Results taken from PubChem BioAssay (NCI).
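How tested: cells in 96-well plates exposed to compound for 48 hours at five concentrations. GI50 is the concentration that inhibits growth by half. Definition used: TGI = concentration required for complete inhibition of growth.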

Key:
Test in all cases: growth of human tumour cells (NCI), 48 h
[1] = tested on: SW-620 colon
[2] = tested on: SF-295 CNS
[3] = tested on: SK-MEL-28 melanoma
[4] = tested on: SF-268 CNS
[5] = tested on: CAKI-1 renal
[6] = tested on: BT-549 breast
[7] = tested on: SK-OV-3 ovarian
[8] = tested on: OVCAR-4 ovarian
[9] = tested on: SK-MEL-5 melanoma
[10] = tested on: HOP-62 NSCLC
[11] = tested on: UO-31 renal
[12] = tested on: PC-3 prostate
[13] = tested on: M14 melanoma
[14] = tested on: MDA-MB-435
[15] = tested on: LOX IMVI melanoma
[16] = tested on: NCI-H226 lung
[17] = tested on: EKVX NSCLC
[18] = tested on: K-562 leukemia
[19] = tested on: TK-10 renal
[20] = tested on: A498 renal
[21] = tested on: SNB-19 CNS
[22] = tested on: SN12C renal
[23] = tested on: ACHN renal
[24] = tested on: KM12 colon
[25] = tested on: UACC-62 melanoma
[26] = tested on: NCI-H460 lung
[27] = tested on: OVCAR-8 ovarian
[28] = tested on: SF-539 CNS
[29] = tested on: SR leukemia
[30] = tested on: MALME-3M melanoma
[31] = tested on: NCI-H522 lung
[32] = tested on: NCI-H23 lung
[33] = tested on: NCI/ADR-RES ovarian
[34] = tested on: HL-60(TB) leukemia
[35] = tested on: T-47D breast
[36] = tested on: HOP-92 NSCLC
[37] = tested on: OVCAR-3 ovarian
[38] = tested on: SNB-75 CNS
[39] = tested on: OVCAR-5 ovarian
[40] = tested on: HCT-15 colon
[41] = tested on: IGROV1 ovarian
[42] = tested on: CCRF-CEM leukemia
[43] = tested on: UACC-257 melanoma
[44] = tested on: MCF7 breast
[45] = tested on: SK-MEL-2 melanoma
[46] = tested on: HS 578T breast
[47] = tested on: MDA-MB-231 breast
[48] = tested on: COLO 205 colon
[49] = tested on: DU-145 prostate
[50] = tested on: HCT-116 colon
[51] = tested on: MOLT-4 leukemia
[52] = tested on: U251 CNS
[53] = tested on: A549 NSCLC
[54] = tested on: RXF 393 renal
[55] = tested on: 786-0 renal
[56] = tested on: HT29 colon
[57] = tested on: HCC-2998 colon

## C/C(=C(/c1ccccc1)c1ccc(OCC(O)CNCCN2CCOCC2)cc1)c1ccccc1 (centres undefined)
[1]
  GI50: 1.77 µM
  TGI: 3.36 µM
[2]
  GI50: 1.92 µM
  TGI: 3.63 µM
[3]
  GI50: 1.75 µM
  TGI: 3.25 µM
[4]
  GI50: 4 µM
  TGI: 15.4 µM
[5]
  GI50: 1.67 µM
  TGI: 3.49 µM
[6]
  GI50: 10.1 µM
  TGI: 22.2 µM
[7]
  GI50: 11.1 µM
  TGI: 24.8 µM
[8]
  GI50: 3.82 µM
  TGI: 14.4 µM
[9]
  GI50: 1.77 µM
  TGI: 3.19 µM
[10]
  GI50: 2.29 µM
  TGI: 5.69 µM
[11]
  GI50: 1.37 µM
  TGI: 2.77 µM
[12]
  GI50: 2.78 µM
  TGI: 10.2 µM
[13]
  GI50: 1.88 µM
  TGI: 3.85 µM
[14]
  GI50: 1.67 µM
  TGI: 3.09 µM
[15]
  GI50: 1.72 µM
  TGI: 3.12 µM
[16]
  GI50: 12.1 µM
  TGI: 29.3 µM
[17]
  GI50: 7.15 µM
  TGI: 20.6 µM
[18]
  GI50: 1.75 µM
  TGI: 4.26 µM
[19]
  GI50: 2.69 µM
  TGI: 7.93 µM
[20]
  GI50: 1.52 µM
  TGI: 10.1 µM
[21]
  GI50: 4.77 µM
  TGI: 17.8 µM
[22]
  GI50: 5.08 µM
  TGI: 18.5 µM
[23]
  GI50: 3.31 µM
  TGI: 11.7 µM
[24]
  GI50: 2.73 µM
  TGI: 8.33 µM
[25]
  GI50: 1.93 µM
  TGI: 3.82 µM
[26]
  GI50: 1.8 µM
  TGI: 3.4 µM
[27]
  GI50: 3.74 µM
  TGI: 15.1 µM
[28]
  GI50: 1.63 µM
  TGI: 2.99 µM
[29]
  GI50: 1.66 µM
  TGI: 4.02 µM
[30]
  GI50: 1.62 µM
  TGI: 3.04 µM
[31]
  GI50: 2.22 µM
  TGI: 6.18 µM
[32]
  GI50: 3.87 µM
  TGI: 14.5 µM
[33]
  GI50: 4.92 µM
  TGI: 17.2 µM
[34]
  GI50: 1.95 µM
  TGI: 4.04 µM
[35]
  GI50: 3.49 µM
  TGI: 11.3 µM
[36]
  GI50: 1.5 µM
  TGI: 4.81 µM
[37]
  GI50: 2.43 µM
  TGI: 7.17 µM
[38]
  GI50: 2.68 µM
  TGI: 15.6 µM
[39]
  GI50: 6.48 µM
  TGI: 20.5 µM
[40]
  GI50: 2.19 µM
  TGI: 5.4 µM
[41]
  GI50: 3.97 µM
  TGI: 15 µM
[42]
  GI50: 3.48 µM
  TGI: 11.3 µM
[43]
  GI50: 2.02 µM
  TGI: 4.07 µM
[44]
  GI50: 3.61 µM
  TGI: 10.2 µM
[45]
  GI50: 2.5 µM
  TGI: 6.24 µM
[46]
  GI50: 1.77 µM
  TGI: 4.1 µM
[47]
  GI50: 1.78 µM
  TGI: 3.83 µM
[48]
  GI50: 1.95 µM
  TGI: 4.17 µM
[49]
  GI50: 4.37 µM
  TGI: 15.7 µM
[50]
  GI50: 1.86 µM
  TGI: 4.02 µM
[51]
  GI50: 2.13 µM
  TGI: 5.41 µM
[52]
  GI50: 2.03 µM
  TGI: 4.52 µM
[53]
  GI50: 3.99 µM
  TGI: 15.6 µM
[54]
  GI50: 1.91 µM
  TGI: 4.22 µM
[55]
  GI50: 1.74 µM
  TGI: 3.32 µM
[56]
  GI50: 2.03 µM
  TGI: 4.86 µM
[57]
  GI50: 1.93 µM
  TGI: 3.43 µM
